Test results published in article PMC7158214 (Clinical Pharmacology and Therapeutics, 2020).
Several values for one entry are separate records, joined by “and”; a condition that tells them apart may be missing. Equal values may be shown once. Read-outs that look alike come from different tables or passages of the source.

What was measured:
OATP1B [1] = assay: Effect of rifampicin on plasma AUC0-24h of endogenous compounds; assay type: in vivo, human; conditions: for AUC0-24h Geometric Mean Ratio +RIF/Control (90% CI): +RIF600; for AUC0-24h Geometric Mean Ratio Control/Baseline (90% CI): probe cocktail vs placebo day
OATP1B [2] = assay: Nonlinear regression of AUCR^-1 vs rifampicin Cmax; assay type: in vivo, human; conditions: from AUCR based on AUC0-24h
OATP1B [3] = conditions: +RIF600
[4] = cited from earlier work
[5] = assay type: in vivo; conditions: human, plasma, po

Molecule	AUC0-24h Geometric Mean Ratio +RIF/Control (90% CI) (OATP1B [1])	fRIF (fraction sensitive to inhibition by rifampicin) (OATP1B [2])	further results
C[C@H](CCC(=O)NCCS(=O)(=O)O)[C@H]1CC[C@H]2[C@@H]3CC[C@@H]4C[C@H](OS(=O)(=O)O)CC[C@]4(C)[C@H]3CC[C@]12C [TLCA-S, taurolithocholate‐3‐sulfate]	greater than 2	–	–
C[C@H](CCC(=O)NCC(=O)O)[C@H]1CC[C@H]2[C@@H]3[C@H](O)C[C@@H]4C[C@H](O[C@@H]5O[C@H](C(=O)O)[C@@H](O)[C@H](O)[C@H]5O)CC[C@]4(C)[C@H]3CC[C@]12C [GCDCA-G, glycochenodeoxycholate‐3‐glucuronide]	~ 15	1 ± 0.08	–
C[C@H](CCC(=O)NCC(=O)O)[C@H]1CC[C@H]2[C@@H]3CC[C@@H]4C[C@H](OS(=O)(=O)O)CC[C@]4(C)[C@H]3C[C@H](O)[C@]12C [GDCA-S, glycodeoxycholate‐3‐sulfate]	greater than 2	–	–
C[C@H](CCC(=O)NCC(=O)O)[C@H]1CC[C@H]2[C@@H]3CC[C@@H]4C[C@H](OS(=O)(=O)O)CC[C@]4(C)[C@H]3CC[C@]12C [GLCA-S, glycolithocholate‐3‐sulfate]	greater than 2	–	–
C[C@H](CCC(=O)O[C@@H]1O[C@H](C(=O)O)[C@@H](O)[C@H](O)[C@H]1O)[C@H]1CC[C@H]2[C@@H]3[C@H](O)C[C@@H]4C[C@H](O)CC[C@]4(C)[C@H]3CC[C@]12C [CDCA-24G, chenodeoxycholate‐24‐glucuronide]	–	0.801 ± 0.124	AUC0-24h Geometric Mean Ratio Control/Baseline (90% CI) (OATP1B [1]): > 1.25 and 1.4
O=C(O)CCCCCCCCCCCCCCC(=O)O [HDA, hexadecanedioic acid]	–	0.776 ± 0.093	–
O=C(O)C[C@H](O)C[C@H](O)/C=C/c1c(C2CC2)nc2ccccc2c1-c1ccc(F)cc1 [Pitavastatin, pitavastatin, reference compound]	–	0.810 ± 0.043	AUC0-24h Geometric Mean Ratio +RIF/Control (90% CI) (OATP1B [3]): 4.0
C[C@H](CCC(=O)NCC(=O)O)[C@H]1CC[C@H]2[C@@H]3[C@H](O)C[C@@H]4C[C@H](O)CC[C@]4(C)[C@H]3C[C@H](O)[C@]12C [GCA, glycocholate]	–	–	AUC0-24h Geometric Mean Ratio Control/Baseline (90% CI) (OATP1B [1]): > 1.25
C[C@H](CCC(=O)NCC(=O)O)[C@H]1CC[C@H]2[C@@H]3[C@H](O)C[C@@H]4C[C@H](O)CC[C@]4(C)[C@H]3CC[C@]12C [GCDCA, glycochenodexoxycholate]	–	–	AUC0-24h Geometric Mean Ratio Control/Baseline (90% CI) (OATP1B [1]): > 1.25
direct bilirubins [D-BIL]	2.8	0.976 ± 0.180	–
CC(C)c1nc(N(C)S(C)(=O)=O)nc(-c2ccc(F)cc2)c1/C=C/[C@@H](O)C[C@@H](O)CC(=O)O [Rosuvastatin, rosuvastatin]	–	0.702 ± 0.122	contribution of urinary excretion to the systemic elimination [4]: ca. 20%; AUC0-24h Geometric Mean Ratio +RIF/Control (90% CI) (OATP1B [3]): 2.5
CO[C@H]1/C=C/O[C@@]2(C)Oc3c(C)c(O)c4c(O)c(c(/C=N/N5CCN(C)CC5)c(O)c4c3C2=O)NC(=O)/C(C)=C\C=C\[C@H](C)[C@H](O)[C@@H](C)[C@@H](O)[C@@H](C)[C@H](OC(C)=O)[C@@H]1C [rifampicin]	–	–	AUC(0-t) ([5]; 150 mg): 19.8 ± 1.2 µM·h; Cmax ([5]; 150 mg): 4.78 ± 0.29 µM; AUC(0-t) ([5]; 300 mg): 55.5 ± 3.4 µM·h; AUC(0-t) ([5]; 600 mg): 141 ± 9 µM·h; Cmax ([5]; 600 mg): 22.8 ± 2.6 µM
CCCCC(=O)N(Cc1ccc(-c2ccccc2-c2nnn[nH]2)cc1)[C@H](C(=O)O)C(C)C [Valsartan, valsartan, reference compound]	–	0.831 ± 0.036	AUC0-24h Geometric Mean Ratio +RIF/Control (90% CI) (OATP1B [3]): 5.5
